ChEMBL document CHEMBL4842362, “From virtual screening hits targeting a cryptic pocket in BACE-1 to a nontoxic brain permeable multitarget anti-Alzheimer lead with disease-modifying and cognition-enhancing effects” (Eur J Med Chem, 2021)
pEC50, pIC50: −log10 of the molar value. Values after ≈ are worked out from the molar mass of the structure shown. Values joined by “and” are separate entries in the source; they are usually repeats but may differ in a detail not shown here. Identical values can stand only once. Active and inactive are the calls of the source. The calls are words filed in the database; no cut-off is given here.

What was measured:
[1] = Antioxidant activity assessed as free radical scavenging activity incubated for 30 mins under dark condition by DPPH assay; format: functional
[2] = Kinetic solubility of the compound in DMSO/PBS buffer measured after 2 hrs by nephalometric analysis; format: physicochemical; conditions: for solubility kinetic at 2 h: DMSO/PBS buffer, read-out: Kinetic_solubility
[3] = target: T1, Beta-secretase 1 (Homo sapiens, UniProt P56817); test: Inhibition of human recombinant BACE-1 expressed in Escherichia coli at 10 uM using panvera peptide as a substrate incubated for 1 hr by fluorescence analysis relative to control
T1 sequence (P56817 whole entry): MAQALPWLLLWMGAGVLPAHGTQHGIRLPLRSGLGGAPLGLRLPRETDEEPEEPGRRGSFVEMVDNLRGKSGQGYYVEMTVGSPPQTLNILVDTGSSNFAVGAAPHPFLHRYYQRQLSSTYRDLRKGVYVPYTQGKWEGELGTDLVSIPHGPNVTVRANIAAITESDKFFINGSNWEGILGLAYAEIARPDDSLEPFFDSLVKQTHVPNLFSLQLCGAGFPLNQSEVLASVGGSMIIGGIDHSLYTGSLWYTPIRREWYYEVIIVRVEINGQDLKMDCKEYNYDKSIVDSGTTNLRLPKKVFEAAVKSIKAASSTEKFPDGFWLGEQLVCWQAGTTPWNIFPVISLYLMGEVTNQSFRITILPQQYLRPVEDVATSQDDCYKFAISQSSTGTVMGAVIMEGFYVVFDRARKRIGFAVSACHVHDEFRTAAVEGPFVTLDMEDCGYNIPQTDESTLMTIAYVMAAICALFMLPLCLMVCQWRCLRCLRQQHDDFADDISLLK

[4] = target: T2, Acetylcholinesterase (Homo sapiens, UniProt P22303); test: Potency index, ratio of rhein-huprine hybrid IC50 to test compound IC50 for inhibition of human recombinant AChE using acetylthiocholine iodide as a substrate preincubated for 20 mins followed by substrate addition by spectrophotometric analysis
T2 sequence (P22303 whole entry): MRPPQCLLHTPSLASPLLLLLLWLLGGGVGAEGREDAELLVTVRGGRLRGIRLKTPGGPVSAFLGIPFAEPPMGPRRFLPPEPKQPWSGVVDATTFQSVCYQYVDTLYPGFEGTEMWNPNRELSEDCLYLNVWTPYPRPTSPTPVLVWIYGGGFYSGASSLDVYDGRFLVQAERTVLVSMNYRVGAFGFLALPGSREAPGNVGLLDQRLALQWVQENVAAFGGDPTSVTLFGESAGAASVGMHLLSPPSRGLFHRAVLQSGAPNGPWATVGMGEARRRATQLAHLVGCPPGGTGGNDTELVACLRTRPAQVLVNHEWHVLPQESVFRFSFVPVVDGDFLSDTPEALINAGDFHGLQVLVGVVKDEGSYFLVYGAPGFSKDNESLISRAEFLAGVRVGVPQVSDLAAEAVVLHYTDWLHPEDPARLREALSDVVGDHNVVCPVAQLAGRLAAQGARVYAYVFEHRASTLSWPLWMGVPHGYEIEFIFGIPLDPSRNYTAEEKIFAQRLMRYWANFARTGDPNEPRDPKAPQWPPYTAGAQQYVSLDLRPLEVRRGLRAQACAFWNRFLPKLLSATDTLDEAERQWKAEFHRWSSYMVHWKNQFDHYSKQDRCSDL

[5] = target: T3, Cholinesterase (Homo sapiens, UniProt P06276)
T3 sequence (P06276 whole entry): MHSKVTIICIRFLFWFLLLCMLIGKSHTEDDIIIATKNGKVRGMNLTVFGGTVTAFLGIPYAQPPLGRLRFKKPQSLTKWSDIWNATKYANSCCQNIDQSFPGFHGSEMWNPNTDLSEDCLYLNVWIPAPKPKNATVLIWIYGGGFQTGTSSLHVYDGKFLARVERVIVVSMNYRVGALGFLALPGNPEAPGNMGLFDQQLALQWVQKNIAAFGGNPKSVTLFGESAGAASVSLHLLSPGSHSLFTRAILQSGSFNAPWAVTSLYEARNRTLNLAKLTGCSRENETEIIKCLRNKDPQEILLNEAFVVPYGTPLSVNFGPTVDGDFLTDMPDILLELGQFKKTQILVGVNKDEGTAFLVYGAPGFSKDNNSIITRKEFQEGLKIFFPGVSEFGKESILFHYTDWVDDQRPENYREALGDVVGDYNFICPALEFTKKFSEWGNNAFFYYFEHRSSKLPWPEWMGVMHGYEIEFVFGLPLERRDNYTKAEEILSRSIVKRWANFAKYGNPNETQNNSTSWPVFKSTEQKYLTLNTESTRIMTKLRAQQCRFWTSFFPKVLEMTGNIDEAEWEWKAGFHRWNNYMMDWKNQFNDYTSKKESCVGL
Description: Inhibition of human serum BChE using butyrylthiocholine iodide as a substrate preincubated for 20 mins followed by substrate addition by spectrophotometric analysis

[6] = target: T3, Cholinesterase; test: Potency index, ratio of huprine-Y IC50 to test compound IC50 for inhibition of human serum BChE using butyrylthiocholine iodide as a substrate preincubated for 20 mins followed by substrate addition by spectrophotometric analysis; format: cell-free
[7] = target: Microtubule-associated protein tau (Homo sapiens) (UniProt P10636); test: Inhibition of tau aggregation (unknown origin) in Escherichia coli BL21 (DE3) at 10 uM incubated overnight by thioflavin S based fluorescence analysis relative to control
Microtubule-associated protein tau (Homo sapiens), sequence (P10636 whole entry): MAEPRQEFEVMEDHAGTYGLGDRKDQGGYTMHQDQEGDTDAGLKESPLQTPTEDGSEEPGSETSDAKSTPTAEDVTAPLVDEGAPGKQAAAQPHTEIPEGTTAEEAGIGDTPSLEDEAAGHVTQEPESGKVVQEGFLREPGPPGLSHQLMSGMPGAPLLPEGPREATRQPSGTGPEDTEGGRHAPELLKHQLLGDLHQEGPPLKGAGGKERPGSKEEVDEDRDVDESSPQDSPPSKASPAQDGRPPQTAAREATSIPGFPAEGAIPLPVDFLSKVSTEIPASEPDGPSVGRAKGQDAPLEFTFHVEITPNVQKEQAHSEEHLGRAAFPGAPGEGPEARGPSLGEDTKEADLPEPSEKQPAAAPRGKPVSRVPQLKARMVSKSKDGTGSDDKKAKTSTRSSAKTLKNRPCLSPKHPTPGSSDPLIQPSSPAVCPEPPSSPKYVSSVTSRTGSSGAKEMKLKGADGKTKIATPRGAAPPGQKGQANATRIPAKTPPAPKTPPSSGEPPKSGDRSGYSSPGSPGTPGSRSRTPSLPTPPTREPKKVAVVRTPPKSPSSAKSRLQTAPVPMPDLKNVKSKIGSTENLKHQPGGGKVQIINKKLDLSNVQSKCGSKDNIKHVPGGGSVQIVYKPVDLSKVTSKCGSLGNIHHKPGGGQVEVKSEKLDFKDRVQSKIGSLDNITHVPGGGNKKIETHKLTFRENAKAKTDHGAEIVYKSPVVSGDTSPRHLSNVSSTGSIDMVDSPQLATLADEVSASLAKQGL

[8] = target: Amyloid-beta precursor protein (Homo sapiens) (UniProt P05067); test: Inhibition of amyloid beta (1 to 42) (unknown origin) aggregation in Escherichia coli BL21 (DE3) at 10 uM incubated overnight by thioflavin S based fluorescence analysis relative to control
Amyloid-beta precursor protein (Homo sapiens), sequence (P05067 whole entry): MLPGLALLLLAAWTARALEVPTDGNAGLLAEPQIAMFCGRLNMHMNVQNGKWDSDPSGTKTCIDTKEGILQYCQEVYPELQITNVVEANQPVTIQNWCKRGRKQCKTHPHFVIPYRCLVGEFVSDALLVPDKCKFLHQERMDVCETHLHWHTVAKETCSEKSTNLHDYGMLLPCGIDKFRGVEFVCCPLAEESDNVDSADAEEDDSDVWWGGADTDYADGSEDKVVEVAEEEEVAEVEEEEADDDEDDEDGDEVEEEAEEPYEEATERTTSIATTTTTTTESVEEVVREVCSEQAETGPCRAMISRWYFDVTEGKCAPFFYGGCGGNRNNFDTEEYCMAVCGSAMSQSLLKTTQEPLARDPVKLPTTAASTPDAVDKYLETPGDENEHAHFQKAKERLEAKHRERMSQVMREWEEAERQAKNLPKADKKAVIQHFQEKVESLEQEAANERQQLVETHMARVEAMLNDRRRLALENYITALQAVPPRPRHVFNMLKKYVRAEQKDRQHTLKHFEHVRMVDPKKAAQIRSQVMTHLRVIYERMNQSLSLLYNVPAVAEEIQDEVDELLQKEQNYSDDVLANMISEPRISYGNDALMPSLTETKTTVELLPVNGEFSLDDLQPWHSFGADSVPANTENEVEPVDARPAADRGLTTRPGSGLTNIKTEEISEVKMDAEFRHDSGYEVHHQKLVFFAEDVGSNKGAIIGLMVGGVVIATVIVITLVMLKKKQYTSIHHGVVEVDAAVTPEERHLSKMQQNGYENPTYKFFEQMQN

[9] = Permeability of the compound in PBS/EtOH by PAMPA-BBB assay; format: ADME; conditions: read-out: permeability
[10] = Neurotoxicity in mouse HT-22 cells assessed as decrease in cell viability at up to 25 uM by MTT assay; format: cell-based
[11] = target: T2, Acetylcholinesterase; test: Potency index, ratio of donepezil IC50 to test compound IC50 for inhibition of human recombinant AChE using acetylthiocholine iodide as a substrate preincubated for 20 mins followed by substrate addition by spectrophotometric analysis
[12] = target: T3, Cholinesterase; test: Potency index, ratio of donepezil IC50 to test compound IC50 for inhibition of human serum BChE using butyrylthiocholine iodide as a substrate preincubated for 20 mins followed by substrate addition by spectrophotometric analysis; format: cell-free
[13] = Acute toxicity in zebra fish embryos assessed as lethality measured every 24 hrs for 72 hrs; parameters: species or system Danio rerio; conditions: zebrafish
[14] = target: T2, Acetylcholinesterase
Description: Inhibition of human recombinant AChE using acetylthiocholine iodide as a substrate preincubated for 20 mins followed by substrate addition by spectrophotometric analysis

[15] = target: T3, Cholinesterase; test: Potency index, ratio of rhein-huprine hybrid IC50 to test compound IC50 for inhibition of human serum BChE using butyrylthiocholine iodide as a substrate preincubated for 20 mins followed by substrate addition by spectrophotometric analysis; format: cell-free
[16] = Metal chelating activity assessed as compound-Cu2+ complex formation at ratio of 0.5:1 by pyrocatechol violet assay; conditions: dose 3.0 mM
[17] = Neurotoxicity in mouse HT-22 cells assessed as decrease in cell viability at up to 10 uM by MTT assay; format: cell-based
[18] = tested on: HT-22; test: Neuroprotective activity against glutamate induced neuronal death in mouse HT-22 cells assessed as increase in cell viability at 1 to 25 uM by MTT assay; format: functional, cell-based; conditions: dose 1-25 µM
[19] = Antioxidant activity assessed as free radical scavenging activity at 500 uM incubated for 30 mins under dark condition by DPPH assay; format: functional
[20] = Metal chelating activity assessed as compound-Fe2+ complex formation at 3 mM in presence of FeCl2 by UV-Vis spectra analysis
[21] = Metal chelating activity assessed as compound-Zn2+ complex formation at 3 mM in presence of ZnCl2 by UV-Vis spectra analysis
[22] = target: T1, Beta-secretase 1; test: Inhibition of human recombinant BACE-1 expressed in Escherichia coli using panvera peptide as a substrate incubated for 1 hr by fluorescence analysis
[23] = Metal chelating activity assessed as compound-Cu2+ complex formation at ratio of 1:1 by pyrocatechol violet assay; conditions: dose 3.0 mM
[24] = Metal chelating activity assessed as compound-Cu2+ complex formation at ratio of 5:1 by pyrocatechol violet assay; conditions: dose 3.0 mM
[25] = Metal chelating activity assessed as compound-Cu2+ complex formation at ratio of 2:1 by pyrocatechol violet assay; conditions: dose 3.0 mM
[26] = Metal chelating activity assessed as compound-Cu2+ complex formation at 3 mM in presence of CuSO4 by UV-Vis spectra analysis
[27] = tested on: HT-22; test: Neuroprotective activity against glutamate induced neuronal death in mouse HT-22 cells assessed as increase in cell viability at 25 uM by MTT assay; format: functional, cell-based
[28] = tested on: HT-22; test: Neuroprotective activity against glutamate induced neuronal death in mouse HT-22 cells assessed as increase in cell viability by MTT assay; format: functional, cell-based; conditions: dose 1-25 µM
[29] = Acute toxicity in zebra fish embryos assessed as lethality at 12.5 to 100 uM measured every 24 hrs for 72 hrs relative to control; parameters: species or system Danio rerio; conditions: zebrafish, dose 12.5-100 µM, read-out: Activity

Compound `O=C1O[C@H]([C@@H](O)CO)C(O)=C1O` [ASCORBIC ACID] has a pEC50 [1] of 4.93.

In the case of `CC1=CC2Cc3nc4cc(Cl)ccc4c(NCCCCCCCCC(=O)NCc4cc[nH]c(=O)c4)c3C(C1)C2` (configuration not stated), the solubility kinetic at 2 h [2] was 13.8 µg/mL (≈ 25.2 µM), the inhibition [3] was “inactive” and the Ratio IC50 [4] was less than 9. For the same compound, the pIC50 [5] was 7.12, the Ratio IC50 [6] was 2 and the inhibition [7] was 20.9%. The inhibition [8] was 19.9%, the Papp [9] was 4.4 ×10⁻⁶ cm/s and the Activity [10] was “Non-Toxic”. For the same compound, the pEC50 [1] was 4.04, the Ratio IC50 [11] was less than 65 and the Ratio IC50 [12] was 79. For the same compound, the LC50 at 72 h [13] was greater than 100000 nM, the pIC50 [14] was 9.20 and the Ratio IC50 [15] was 7.

With `CC1=CC2Cc3nc4cc(Cl)ccc4c(NCCCCCCCCCNS(=O)(=O)c4cn[nH]c4)c3C(C1)C2` (configuration not stated) the solubility kinetic at 2 h [2] was 5.7 µg/mL (≈ 10.2 µM), the Activity [16] was “Active” and the Ratio IC50 [4] was less than 9. For the same compound, the Activity [17] was “Toxic”, the pIC50 [5] was 7.30 and the Activity [18] was “inactive”. The Activity [19] was “inactive”, the Ratio IC50 [6] was 2 and the Activity [20] was “Active”. For the same compound, the Activity [21] was “Active”, the pIC50 [22] was 4.97 and the inhibition [7] was 55.5%. The inhibition [8] was 35.3%, the Activity [23] was “Active” and the Papp [9] was 6.3 ×10⁻⁶ cm/s. The Activity [24] was “Active”, the Activity [25] was “Active” and the Activity [26] was “Active”. The Ratio IC50 [11] was less than 65, the Ratio IC50 [12] was 79 and the LC50 at 72 h [13] was greater than 100000 nM. For the same compound, the pIC50 [14] was 8.62 and the Ratio IC50 [15] was 7.

Work on `CC1=CC2Cc3nc4cc(Cl)ccc4c(N)c3C(C1)C2` (racemic) [HUPRINE Y] yielded an LC50 at 72 h [13] of 20900 nM.

With `O=c1c(O)c(-c2ccc(O)c(O)c2)oc2cc(O)cc(O)c12` the Activity [27] was “Active”.

For `CC[N+](C)(CC)CCC[n+]1c(-c2ccccc2)c2cc(N)ccc2c2ccc(N)cc21`, the inhibition [8] was 39.2%.

In the case of `O=C(O)CN(CCN(CC(=O)O)CC(=O)O)CC(=O)O`, the Activity [16] was “Active”, the Activity [20] was “Active” and the Activity [23] was “Active”. For the same compound, the Activity [24] was “Active” and the Activity [25] was “Active”.

Compound `CC1=CC2Cc3nc4cc(Cl)ccc4c(NCCCCCCCCCNC(=O)c4ccc[nH]c4=O)c3C(C1)C2` (configuration not stated) has a solubility kinetic at 2 h [2] of 7.7 µg/mL (≈ 14.1 µM), an inhibition [3] of 6.92% and a Ratio IC50 [4] of less than 9. The pIC50 [5] was 7.50, the Activity [18] was “inactive” and the Activity [19] was “inactive”. For the same compound, the Ratio IC50 [6] was 2, the Activity [21] was “Active” and the inhibition [7] was 48.5%. For the same compound, the inhibition [8] was 42.3%, the Papp [9] was 6.7 ×10⁻⁶ cm/s and the Activity [10] was “Non-Toxic”. The Activity [26] was “Active”, the Ratio IC50 [11] was less than 65 and the Ratio IC50 [12] was 79. It also gave an LC50 at 72 h [13] of 57800 nM, a pIC50 [14] of 8.74 and a Ratio IC50 [15] of 7.

With `CC1=CC2Cc3nc4cc(Cl)ccc4c(NCCCCCCCCC(=O)Nc4cn[nH]c4)c3C(C1)C2` (configuration not stated) the solubility kinetic at 2 h [2] was 9.3 µg/mL (≈ 18.4 µM), the Activity [16] was “Active” and the inhibition [3] was 16.2%. The Ratio IC50 [4] was less than 9, the pIC50 [5] was 7.19 and the Ratio IC50 [6] was 2. The Activity [20] was “Active”, the Activity [21] was “Active” and the inhibition [7] was 45.3%. For the same compound, the inhibition [8] was 32.6%, the Activity [23] was “Active” and the Papp [9] was 5.9 ×10⁻⁶ cm/s. For the same compound, the Activity [24] was “Active”, the Activity [10] was “Non-Toxic” and the Activity [25] was “Active”. For the same compound, the Activity [28] was “Dose-Dependent Effect”, the Activity [26] was “Active” and the pEC50 [1] was 4.71. The Ratio IC50 [11] was less than 65, the Ratio IC50 [12] was 79 and the LC50 at 72 h [13] was 69100 nM. The pIC50 [14] was 8.62 and the Ratio IC50 [15] was 7.

`COc1cc(CNC(=O)CCCCCCCCNc2c3c(nc4cc(Cl)ccc24)CC2C=C(C)CC3C2)ccn1` (configuration not stated) showed a mortality at 24 h, 100 µM [29] of 75%, a solubility kinetic at 2 h [2] of 5.1 µg/mL (≈ 9.09 µM) and an inhibition [3] of 26.5%. For the same compound, the Ratio IC50 [4] was less than 9, the pIC50 [5] was 7.05 and the Activity [19] was “inactive”. It also gave a Ratio IC50 [6] of 2, an inhibition [7] of 41.6% and an inhibition [8] of 29.4%. The Papp [9] was 8.2 ×10⁻⁶ cm/s, the Activity [10] was “Non-Toxic” and the Ratio IC50 [11] was less than 65. The Ratio IC50 [12] was 79, the LC50 at 72 h [13] was 7100 nM and the pIC50 [14] was 8.90. The Ratio IC50 [15] was 7.

With `CC1=CC2Cc3nc4cc(Cl)ccc4c(NCCCCCCCCCNC(=O)c4cc(O)c5c(c4)C(=O)c4cccc(O)c4C5=O)c3C(C1)C2` (configuration not stated) the Kinetic_solubility ([2]; 2 h) was 19.7 uM and 14.8 ug ml-1, the inhibition [7] was 29.6% and the inhibition [8] was 47.9%.

With `CC1=CC2Cc3nc4cc(Cl)ccc4c(NCCCCCCCCC(=O)N4CCNC(=O)C4)c3C(C1)C2` (configuration not stated) the solubility kinetic at 2 h [2] was 43.3 µg/mL (≈ 82.8 µM), the inhibition [3] was “inactive” and the Ratio IC50 [4] was less than 9. For the same compound, the pIC50 [5] was 7.13, the Activity [19] was “inactive” and the Ratio IC50 [6] was 2. The inhibition [7] was 15%, the inhibition [8] was 9.7% and the Papp [9] was 4.9 ×10⁻⁶ cm/s. The Activity [10] was “Non-Toxic”, the Ratio IC50 [11] was less than 65 and the Ratio IC50 [12] was 79. It also gave an LC50 at 72 h [13] greater than 100000 nM, a pIC50 [14] of 9.39 and a Ratio IC50 [15] of 7.
